A short description of data set [1]: Equilibrium thermodynamic aqueous solubility of the compound in pH 2 buffer incubated for 24 hrs by UV-spectroscopy based shake flask method. Format: physicochemical. Particulars: read-out: Therm_solubility.
Data set [2] in a line: in vitro. The following applies: human, liver microsomes. On the technique in general: Microsomes from liver hold many membrane-bound enzymes, among them those of drug oxidation.
Description: Half life in human liver microsomes at 1 uM incubated prior to NADPH addition by LC-MS/MS analysis
The nature of data set [3]: physchem. The following applies: MeOH/HCl solution.
Description: Chemical stability of the compound in MeOH/HCl solution at pH <1 assessed as compound decomposition measured after 7 days by UV-RP-HPLC analysis
A short description of data set [4]: physchem. The following applies: octanol/water, pH 2.
Description: Octanol/water partition coefficient, log D of the compound at pH 2
A short description of data set [5]: in vitro. Particulars: human, liver microsomes. This is another data set of the same source.
Description: Stability in human liver microsomes at 1 uM incubated prior to NADPH addition by LC-MS/MS analysis relative to hepatic blood flow
The nature of data set [6]: physchem. Particulars: pH 6.8 buffer.
For data set [7] the following is noted: 168 h.
Description: Chemical stability of the compound in MeOH/NH3 solution at pH >10 assessed as compound decomposition measured after 7 days by UV-RP-HPLC analysis
Data set [8] in a line: physchem. The following applies: octanol/water, pH 11.
Description: Octanol/water partition coefficient, log D of the compound at pH 11
The nature of data set [9]: Equilibrium thermodynamic aqueous solubility of the compound in pH 2.1 buffer incubated for 24 hrs by UV-spectroscopy based shake flask method. Format: physicochemical. Particulars: read-out: Therm_solubility.
Data set [10] is described as follows: in vitro. Particulars: human, Caco-2.
Description: Permeability across apical to basolateral side in human Caco2 cells measured up to 2 hrs by LC-MS/MS analysis or scintillation counting method
Data set [11] in a line: in vitro. Particulars: human, Caco-2. This is another data set of the same source.
Description: Efflux ratio of permeability in human Caco2 cells measured up to 2 hrs by LC-MS/MS analysis or scintillation counting method
Data set [12] in a line: Acid dissociation constant, pKa2 of the compound by UV absorption spectra analysis or potentiometric titration technique. Type of data set: physicochemical.
The nature of data set [13]: Acid dissociation constant, pKa1 of the compound by UV absorption spectra analysis or potentiometric titration technique. Type of data set: physicochemical.
The nature of data set [14]: Equilibrium thermodynamic aqueous solubility of the compound in pH 2.3 buffer incubated for 24 hrs by UV-spectroscopy based shake flask method. Format: physicochemical. The following applies: read-out: Therm_solubility.
The nature of data set [15]: Basic dissociation constant, pKb of the compound by UV absorption spectra analysis or potentiometric titration technique. Type of data set: physicochemical.
Data set [16] can be described thus: physchem. The following applies: pH 6.8 buffer. This is another data set of the same source.
Data set [17] is described as follows: Chemical stability of the compound in MeOH/H2O solution at pH >10 assessed as compound decomposition measured after 1 day by UV-RP-HPLC analysis. Format: physicochemical. Particulars: read-out: Drug degradation.
The nature of data set [18]: Acid dissociation constant, pKa of the compound by UV absorption spectra analysis or potentiometric titration technique. Format: physicochemical.
Data set [19] can be described thus: Equilibrium thermodynamic aqueous solubility of the compound in pH 5.9 buffer incubated for 24 hrs by UV-spectroscopy based shake flask method. Format: physicochemical. The following applies: read-out: Therm_solubility.

Each structure is given as a SMILES string. In brackets after ≈: the same amount, converted by molar mass.

Usually half-life stands for the time needed for the level to fall by half in the phase considered. High values mean slow loss, low ones fast loss. Usually logD stands for lipophilicity at a set pH, counting ionised and neutral species. Low readings indicate lower lipophilicity, high ones higher lipophilicity. As usually defined, the Papp A→B is how fast a substance crosses the layer from the apical side. Lower therefore signals poor permeation. Usually efflux ratio stands for the permeability from basolateral to apical divided by that in the opposite direction, in the common usage. As usually defined, the pKa is the pH at which an ionisable group is half protonated. Broadly, the pKb is −log10 of the Kb, conventionally taken in molar units. Low values mean a high Kb, high ones a low Kb.

For `COP(=O)(O)c1ccc(C(F)(F)F)cc1`, the solubility thermodynamic at 24 h in data set [1] was 27.3 mg/mL (≈ 114 mM); in the data set “physchem [6]” it was over 0.06 mg/mL. Moreover, the half-life at 1 µM in “in vitro [2]” was over 2.17 h. In addition, the degraded at 168 h in the data set “physchem [3]” is under 10%. The compound also displayed a logD in the data set “physchem [4]” of 1.3. In addition, the hepatic extraction ratio at 1 µM in “in vitro [5]” is under 0.23. This compound registered a Drug degradation in data set [7] of under 10%.

The compound `CCOP(=O)(O)c1ccc(C(F)(F)F)cc1` returned a half-life at 1 µM in “in vitro [2]” of over 2.17 h. In addition, the logD in “physchem [8]” is -0.8; in “physchem [4]”, 1.9. The compound further yielded a degraded at 168 h in “physchem [3]” of under 10%. Further, the solubility thermodynamic at 24 h in data set [9] was 280 mg/mL (≈ 1100 mM); in “physchem [6]” it was over 0.064 mg/mL. Also, in “in vitro [5]”, the hepatic extraction ratio at 1 µM was under 0.23. Further, the Drug degradation in [7] is listed as under 10%. This compound also had a Papp A→B at 2 h in the data set “in vitro [10]” of 100 nm/s. Further, the efflux ratio at 2 h in the data set “in vitro [11]” is under 0.1.

As for `O=P(O)(O)c1ccc(C(F)(F)F)cc1`, the logD in “physchem [8]” was under -1.6; in the data set “physchem [4]”, 0.6. The compound further returned a degraded at 168 h in “physchem [3]” of under 10%. The pKa in data set [12] is 6.8; in [13] it was under 2. Moreover, the solubility thermodynamic at 24 h in data set [14] is 17.8 mg/mL (≈ 78.7 mM); in the data set “physchem [6]”, over 0.054 mg/mL. In data set [7], this compound gave a Drug degradation of under 10%.

Compound `O=P1(c2ccc(C(F)(F)F)cc2)OCCNCCO1` registered a half-life at 1 µM in “in vitro [2]” of over 2.17 h. For the same compound, the logD in “physchem [8]” stood at 1.5; in “physchem [4]”, 0.5. The compound also came in with a degraded at 168 h in “physchem [3]” of under 10%. Also, the pKb in data set [15] was 6. In “in vitro [5]”, the hepatic extraction ratio at 1 µM is under 0.23. Further, the solubility thermodynamic at 24 h in the data set “physchem [6]” was 0.066 mg/mL (≈ 0.224 mM); in “physchem [16]”, over 10 mg/mL. The compound further registered a Papp A→B at 2 h in the data set “in vitro [10]” of 630 nm/s. For the same compound, the degraded at 24 h in data set [17] was 20%. Further, the efflux ratio at 2 h in “in vitro [11]” came out at 0.7.

In “in vitro [2]”, `O=C(O)c1ccc(C(F)(F)F)cc1` had a half-life at 1 µM of over 2.17 h. In addition, in “in vitro [5]”, the hepatic extraction ratio at 1 µM is under 0.23. Besides, the solubility thermodynamic at 24 h is over 0.048 mg/mL in “physchem [6]” and over 10 mg/mL in the data set “physchem [16]”. The same compound gave a Papp A→B at 2 h in the data set “in vitro [10]” of 150 nm/s. The efflux ratio at 2 h in “in vitro [11]” is 1.3. In data set [18], this compound displayed a pKa of 3.5.

`CP(=O)(O)c1ccc(C(F)(F)F)cc1`: the figures for the solubility thermodynamic at 24 h (in data set [19]; in the data set “physchem [6]”) were over 8.9 mg/mL and over 0.049 mg/mL, respectively. This compound also showed a half-life at 1 µM in the data set “in vitro [2]” of over 2.17 h. The logD in the data set “physchem [8]” was -1.3; in the data set “physchem [4]” it was 1.3. The same compound gave a degraded at 168 h in “physchem [3]” of under 10%. In addition, the hepatic extraction ratio at 1 µM in “in vitro [5]” is under 0.23. Further, the Drug degradation in data set [7] is under 10%. This compound yielded a Papp A→B at 2 h in the data set “in vitro [10]” of under 50 nm/s. Moreover, the pKa in data set [18] amounted to 2.

`O=P(O)(OCCO)c1ccc(C(F)(F)F)cc1` registered a degraded at 168 h in “physchem [3]” of under 10%. Further, the figures for the solubility thermodynamic at 24 h (in [9]; in “physchem [6]”) were over 28.5 mg/mL and over 0.063 mg/mL, respectively. The compound further had a Drug degradation in [7] of under 10%.

The values are drawn from ChEMBL document CHEMBL4616670, “Phosphine Oxides from a Medicinal Chemist's Perspective: Physicochemical and in Vitro Parameters Relevant for Drug Discovery” (J Med Chem, 2020).
